Data published in article PMC7395062, “Multiparametric assessment of mitochondrial respiratory inhibition in HepG2 and RPTEC/TERT1 cells using a panel of mitochondrial targeting agrochemicals” (Archives of Toxicology, 2020).
Where two headings read alike, the source gives them in different places.

Legend:
RPTEC/TERT1 cells = test: Resazurin reduction viability assay, RPTEC/TERT1; type: cell-based, human; details: for Statistical significance, Viability Galactose settings Resazurin / Statistical significance, Viability Glucose settings Resazurin: RPTEC/TERT1
Description: These cells were obtained under licence from Evercyte GmBH, Vienna Austria. […] For experiments, cells were plated in a required format plate, allowed to become contact-inhibited and fed 24 h prior to treatment exposure. For experiments in galactose condition, cells were fed 24 h prior to experiment with culture medium (custom made DMEM/F12, PromoCell) in which 5 mM glucose was replaced with 5 mM galactose (Merck, G5388).
(§1) The conversion of resazurin to fluorescent resorufin was measured in a plate reader at excitation/emission 540/590 nm.
(§2) All results are average of 2–3 independent experiments.

HepG2 cells = test: Resazurin reduction viability assay, 2D HepG2; type: cell-based, human; details: for Effect on resazurin reduction / viability: up to 10 µM, 24 h exposure
Description: (§3) The HepG2 cell line, a human hepatocellular carcinoma, was obtained from ATCC (American Type Culture Collection, Wesel, Germany). […] Cells were maintained at 37 °C in a 5% CO2 humidified atmosphere, fed every 2 to 3 days and passaged at approximately 80% confluence. […] For galactose experiments, the medium was refreshed 24 h before exposure with galactose-containing medium. […] Culture medium was refreshed every 3–4 days and the culture was maintained for 21 days prior to dosing.
as §1, §2

[1] = target: NADH dehydrogenase (Complex I, CI) (Homo sapiens, UniProt O75251+O75306+P03886)
Description: The mitochondrial complex assay uses real-time OCR measurement with sequential addition of specific complex substrates and/or inhibitors to identify the complex within the ETC that is inhibited. […] In the first step, cultured cells are permeabilised and provided with CI substrates. The test compound is injected and OCR is measured. […] OCR is measured for the second time. In the third step, Antimycin A together with ascorbate and tetramethyl phenylenediamine (TMPD) is added to simultaneously block CIII and supply CIV. A third and final OCR measurement is conducted.
The following day, cells were washed once in mitochondrial assay solution (MAS), containing 220 mM mannitol (Sigma, M9647), 70 mM sucrose (Sigma, S7903), 10 mM potassium phosphate (Sigma, P5655), 5 mM magnesium chloride (Sigma, M8266), 3 mM HEPES (Sigma, H0887) and 1 mM EGTA (Sigma, E4378) with 0.2% fatty acid-free BSA (Sigma, A8806). […] Each measurement consisted of a thirty second mix and two-minute read cycle. Compounds were injected sequentially and OCR was measured twice. […] Complex inhibition was determined using the second OCR measurement after compound/vehicle injection, normalised to the baseline OCR measurements prior to compound addition. ETC inhibition is determined in decreased OCR. CI inhibition is confirmed if the inhibited OCR by injection A can be rescued after injection B. CII inhibition is determined if there is no inhibition after A, but inhibition after B. CIII inhibition is determined if there is inhibition after A and B, with recovery after C. OCR inhibition after injection C indicates effects downstream of CIII.
All results are average of 2–3 independent experiments. Each independent experiment is referred to as biological replicate and includes at least two technical replicates. […] Variation in all performed assays was calculated and represented as standard deviation (SD). Curves were fit using the non-liner regression four-parameter Hill model.

HepG2 3D spheroids = test: Cell death assay (PI staining) in 3D cultured HepG2 spheroids; type: cell-based, human; details: for EC50: Homo sapiens, HepG2, 24 h; for Effect of repeated exposure (5 × 24 h vs 1 × 24 h) on toxic sensitivity: 3D HepG2 spheroids
Description: as §3
At day 21, the culture medium was replaced by fresh medium containing the compounds in the desired concentration. […] For the repeat exposure scenario, Hoechst was added to the 4th exposure and PI to the 5th exposure. […] The confocal imaging was performed using a Nikon TiE2000 with perfect focus system and XY-stage (Nikon, Amsterdam, The Netherlands). Quantification of the Hoechst and PI signal localization was performed using Nis Elements Analysis software. First, a max projection was created of all z-stacks. The overlapping areas between Hoechst and PI in the projection picture were assessed based on a manually curated intensity threshold. Finally, the fraction of spheroids positive for PI staining was determined.
as §2

[2] = test system: CII/CIII (succinate dehydrogenase / cytochrome bc1 complex); type: cell-based, human; details: permeabilised HepG2; sequential substrates/inhibitors
Description: The test compound is injected and OCR is measured. […] OCR is measured for the second time. […] A third and final OCR measurement is conducted.
Compounds were injected sequentially and OCR was measured twice. […] ETC inhibition is determined in decreased OCR.
as §2

NADH dehydrogenase (Complex I, CI), sequence (O75251 39-213): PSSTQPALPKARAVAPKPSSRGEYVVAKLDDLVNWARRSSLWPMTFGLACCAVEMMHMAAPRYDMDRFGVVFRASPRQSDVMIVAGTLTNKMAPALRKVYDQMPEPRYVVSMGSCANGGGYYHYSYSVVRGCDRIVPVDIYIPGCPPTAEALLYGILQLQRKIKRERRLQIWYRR
NADH dehydrogenase (Complex I, CI), sequence (P03886 whole entry): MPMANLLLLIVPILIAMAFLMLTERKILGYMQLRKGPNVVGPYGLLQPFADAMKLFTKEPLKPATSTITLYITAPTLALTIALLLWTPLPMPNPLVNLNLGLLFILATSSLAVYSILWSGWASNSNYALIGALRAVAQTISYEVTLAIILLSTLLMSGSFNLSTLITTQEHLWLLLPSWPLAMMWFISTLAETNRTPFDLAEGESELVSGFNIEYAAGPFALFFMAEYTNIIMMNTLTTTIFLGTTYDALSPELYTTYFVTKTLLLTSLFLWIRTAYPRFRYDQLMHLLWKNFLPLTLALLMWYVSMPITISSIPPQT
NADH dehydrogenase (Complex I, CI), sequence (O75306 34-463): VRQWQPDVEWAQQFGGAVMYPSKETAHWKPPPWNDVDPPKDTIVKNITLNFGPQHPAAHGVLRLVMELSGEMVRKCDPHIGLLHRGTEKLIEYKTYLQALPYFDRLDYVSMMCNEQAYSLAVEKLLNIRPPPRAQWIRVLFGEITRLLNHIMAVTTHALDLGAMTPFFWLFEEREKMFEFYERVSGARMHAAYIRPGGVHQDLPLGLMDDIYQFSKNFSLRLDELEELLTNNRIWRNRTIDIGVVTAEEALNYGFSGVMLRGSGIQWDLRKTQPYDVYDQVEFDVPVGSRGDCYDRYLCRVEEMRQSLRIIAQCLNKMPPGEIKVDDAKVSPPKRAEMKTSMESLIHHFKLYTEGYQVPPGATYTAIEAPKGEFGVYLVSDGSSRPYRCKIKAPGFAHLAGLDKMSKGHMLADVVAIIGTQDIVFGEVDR

Row | Structure (SMILES) | Statistical significance, Viability Galactose settings Resazurin (RPTEC/TERT1 cells; g = 7 µM) | Statistical significance, Viability Galactose settings Resazurin (RPTEC/TERT1 cells; h = 10 µM) | Statistical significance, Viability Glucose settings Resazurin (RPTEC/TERT1 cells; glucose, g = 7 µM) | Statistical significance, Viability Glucose settings Resazurin (RPTEC/TERT1 cells; glucose, h = 10 µM) | Statistical significance, Viability Galactose settings Resazurin (HepG2 cells; HepG2, f = 0.4 µM) | Statistical significance, Viability Galactose settings Resazurin (HepG2 cells; HepG2, g = 7 µM) | Statistical significance, Viability Galactose settings Resazurin (HepG2 cells; HepG2, h = 10 µM) | ETC-complex specificity pattern (CII/CIII) [2] | other results
1 | COc1cc2c(cc1OC)[C@@H]1C(=O)c3ccc4c(c3O[C@@H]1CO2)C=CC(C)(C)O4 [Deguelin] | * (*p < 0.05 (Tables 3, 4)) | * (*p < 0.05 (Tables 3, 4)) | * (*p < 0.05 (Tables 3, 4)) | * (*p < 0.05 (Tables 3, 4)) | * (*p < 0.05 (Tables 3, 4)) | * (*p < 0.05 (Tables 3, 4)) | * (*p < 0.05 (Tables 3, 4)) | – | Statistical significance, Viability Galactose settings Resazurin (RPTEC/TERT1 cells; f = 0.4 µM): * (*p < 0.05 (Tables 3, 4)); OCR basal - Permeabilised cells Measurement 1 statistical significance [1]: * (*p < 0.05)
2 | CC(C)(C)c1ccc(CSc2cnn(C(C)(C)C)c(=O)c2Cl)cc1 [Pyridaben] | – | – | * (*p < 0.05 (Tables 3, 4)) | * (*p < 0.05 (Tables 3, 4)) | * (*p < 0.05 (Tables 3, 4)) | * (*p < 0.05 (Tables 3, 4)) | * (*p < 0.05 (Tables 3, 4)) | – | Statistical significance, Viability Glucose settings Resazurin (RPTEC/TERT1 cells; glucose, f = 0.4 µM): * (*p < 0.05 (Tables 3, 4)); Statistical significance, Viability Galactose settings Resazurin (HepG2 cells; HepG2, d = 0.016 µM): * (*p < 0.05 (Tables 3, 4)); Statistical significance, Viability Galactose settings Resazurin (HepG2 cells; HepG2, e = 0.08 µM): * (*p < 0.05 (Tables 3, 4))
3 | C=C(C)[C@H]1Cc2c(ccc3c2O[C@@H]2COc4cc(OC)c(OC)cc4[C@@H]2C3=O)O1 [Rotenone] | – | – | – | – | – | – | – | – | Effect on resazurin reduction / viability (HepG2 cells; glucose): mildly affected the viability; EC50 (HepG2 3D spheroids; read-out: EC50 cell death 3D HepG2, 1 × 24 h exposure): 0.127 µM; EC50 (HepG2 3D spheroids; read-out: EC50 cell death 3D HepG2, 5 × 24 h exposure): 0.028 µM
4 | COc1cc(CNC(=O)CCCC/C=C/C(C)C)ccc1O [Capsaicin] | – | – | – | * (*p < 0.05 (Tables 3, 4)) | – | – | – | – | Effect on resazurin reduction (RPTEC/TERT1 cells; up to 10 µM, 24 h exposure, glucose): did not affect resazurin reduction; Effect on resazurin reduction / viability (HepG2 cells; glucose): did not affect resazurin reduction; LOEL, CI inhibition in mitochondrial complex assay ([1]; permeabilised HepG2): 50 µM; ETC-complex specificity pattern (CI) ([1]; permeabilised HepG2, OCR inhibition after injection, recovery with succinate): expected CI-specificity pattern
5 | CO/C=C(/C(=O)OC)c1ccccc1Oc1cc(Oc2ccccc2C#N)ncn1 [Azoxystrobin] | * (*p < 0.05 (Tables 3, 4)) | * (*p < 0.05 (Tables 3, 4)) | – | * (*p < 0.05 (Tables 3, 4)) | – | * (*p < 0.05 (Tables 3, 4)) | * (*p < 0.05 (Tables 3, 4)) | only partially rescued with ascorbate/TMPD | –
6 | COC(=O)N(OC)c1ccccc1COc1ccn(-c2ccc(Cl)cc2)n1 [Pyraclostrobin] | * (*p < 0.05 (Tables 3, 4)) | * (*p < 0.05 (Tables 3, 4)) | * (*p < 0.05 (Tables 3, 4)) | * (*p < 0.05 (Tables 3, 4)) | * (*p < 0.05 (Tables 3, 4)) | * (*p < 0.05 (Tables 3, 4)) | * (*p < 0.05 (Tables 3, 4)) | conformed to this pattern | Statistical significance, Viability Galactose settings Resazurin (RPTEC/TERT1 cells; f = 0.4 µM): * (*p < 0.05 (Tables 3, 4)); Statistical significance, Viability Glucose settings Resazurin (HepG2 cells; HepG2, glucose, h = 10 µM): * (*p < 0.05 (Tables 3, 4)); Effect of repeated exposure (5 × 24 h vs 1 × 24 h) on toxic sensitivity (HepG2 3D spheroids): increased the toxic sensitivity
7 | CO/C=C(/C(=O)OC)c1ccccc1COc1cccc(C(F)(F)F)n1 [Picoxystrobin] | * (*p < 0.05 (Tables 3, 4)) | * (*p < 0.05 (Tables 3, 4)) | – | * (*p < 0.05 (Tables 3, 4)) | * (*p < 0.05 (Tables 3, 4)) | * (*p < 0.05 (Tables 3, 4)) | * (*p < 0.05 (Tables 3, 4)) | conformed to this pattern | Effect of repeated exposure (5 × 24 h vs 1 × 24 h) on toxic sensitivity (HepG2 3D spheroids): increased the toxic sensitivity
